Source: paper PMC6874179, “Development of Macrocycle Kinase Inhibitors for ALK2 Using Fibrodysplasia Ossificans Progressiva‐Derived Endothelial Cells” (JBMR Plus, 2019)

What was measured:
EPHA8 = biological target: T1, EPHA8 (Homo sapiens, UniProt P29322); experiment: Proqinase Kinase profiling; type: biochemical; settings: read-out: % inhibition at 100nM
T1 construct: purchased DiscoverX

RPS6KB1 = biological target: T2, RPS6KB1 (Homo sapiens, UniProt P23443); experiment: Proqinase Kinase profiling; type: biochemical; settings: read-out: % inhibition at 100nM
T2 construct: purchased DiscoverX

ROCK1 = biological target: T3, ROCK1 (Homo sapiens, UniProt Q13464); experiment: Proqinase Kinase profiling; type: biochemical; settings: read-out: % inhibition at 100nM
T3 construct: purchased DiscoverX

PAK2 = biological target: T4, PAK2 (Homo sapiens, UniProt Q13177); experiment: Proqinase Kinase profiling; type: biochemical; settings: read-out: % inhibition at 100nM
T4 construct: purchased DiscoverX

PRKD2 = biological target: T5, PRKD2 (Homo sapiens, UniProt Q9BZL6); experiment: Proqinase Kinase profiling; type: biochemical; settings: read-out: % inhibition at 100nM
T5 construct: purchased DiscoverX

PTK6 = biological target: T6, PTK6 (Homo sapiens, UniProt Q13882); experiment: Proqinase Kinase profiling; type: biochemical; settings: read-out: % inhibition at 100nM
T6 construct: purchased DiscoverX

KIT_D816H = biological target: T7, KIT_D816H (Homo sapiens, UniProt P10721, D816H); experiment: Proqinase Kinase profiling; type: biochemical; settings: read-out: % inhibition at 100nM
T7 construct: purchased DiscoverX

PRKCQ = biological target: T8, PRKCQ (Homo sapiens, UniProt Q04759); experiment: Proqinase Kinase profiling; type: biochemical; settings: read-out: % inhibition at 100nM
T8 construct: purchased DiscoverX

NTRK3 = biological target: T9, NTRK3 (Homo sapiens, UniProt Q16288); experiment: Proqinase Kinase profiling; type: biochemical; settings: read-out: % inhibition at 100nM
T9 construct: purchased DiscoverX

DSTYK = biological target: T10, DSTYK (Homo sapiens, UniProt Q6XUX3); experiment: Proqinase Kinase profiling; type: biochemical; settings: read-out: % inhibition at 100nM
T10 construct: purchased DiscoverX

PLK2 = biological target: T11, PLK2 (Homo sapiens, UniProt Q9NYY3); experiment: Proqinase Kinase profiling; type: biochemical; settings: read-out: % inhibition at 100nM
T11 construct: purchased DiscoverX

ABL1_H396P = biological target: T12, ABL1_H396P (Homo sapiens, UniProt P00519, H396P); experiment: Proqinase Kinase profiling; type: biochemical; settings: read-out: % inhibition at 100nM
T12 construct: purchased DiscoverX

CSNK1D = biological target: T13, CSNK1D (Homo sapiens, UniProt P48730); experiment: Proqinase Kinase profiling; type: biochemical; settings: read-out: % inhibition at 100nM
T13 construct: purchased DiscoverX

CSF1R = biological target: T14, CSF1R (Homo sapiens, UniProt P07333); experiment: Proqinase Kinase profiling; type: biochemical; settings: read-out: % inhibition at 100nM
T14 construct: purchased DiscoverX

STK25 = biological target: T15, STK25 (Homo sapiens, UniProt O00506); experiment: Proqinase Kinase profiling; type: biochemical; settings: read-out: % inhibition at 100nM
T15 construct: purchased DiscoverX

EGFR_L861Q = biological target: T16, EGFR_L861Q (Homo sapiens, UniProt P00533, L861Q); experiment: Proqinase Kinase profiling; type: biochemical; settings: read-out: % inhibition at 100nM
T16 construct: purchased DiscoverX

MAP3K7 = biological target: T17, MAP3K7 (Homo sapiens, UniProt O43318); experiment: Proqinase Kinase profiling; type: biochemical; settings: read-out: % inhibition at 100nM
T17 construct: purchased DiscoverX

MAP3K2 = biological target: T18, MAP3K2 (Homo sapiens, UniProt Q9Y2U5); experiment: Proqinase Kinase profiling; type: biochemical; settings: read-out: % inhibition at 100nM
T18 construct: purchased DiscoverX

GCK = biological target: T19, GCK (Homo sapiens, UniProt Q12851); experiment: Proqinase Kinase profiling; type: biochemical; settings: read-out: % inhibition at 100nM
T19 construct: purchased DiscoverX

PKN1 = biological target: T20, PKN1 (Homo sapiens, UniProt Q16512); experiment: Proqinase Kinase profiling; type: biochemical; settings: read-out: % inhibition at 100nM
T20 construct: purchased DiscoverX

EIF2AK3 = biological target: T21, EIF2AK3 (Homo sapiens, UniProt Q9NZJ5); experiment: Proqinase Kinase profiling; type: biochemical; settings: read-out: % inhibition at 100nM
T21 construct: purchased DiscoverX

CDC42BPA = biological target: T22, CDC42BPA (Homo sapiens, UniProt Q5VT25); experiment: Proqinase Kinase profiling; type: biochemical; settings: read-out: % inhibition at 100nM
T22 construct: purchased DiscoverX

DAPK3 = biological target: T23, DAPK3 (Homo sapiens, UniProt O43293); experiment: Proqinase Kinase profiling; type: biochemical; settings: read-out: % inhibition at 100nM
T23 construct: purchased DiscoverX

PDGFRB = biological target: T24, PDGFRB (Homo sapiens, UniProt P09619); experiment: Proqinase Kinase profiling; type: biochemical; settings: read-out: % inhibition at 100nM
T24 construct: purchased DiscoverX

HIPK1 = biological target: T25, HIPK1 (Homo sapiens, UniProt Q86Z02); experiment: Proqinase Kinase profiling; type: biochemical; settings: read-out: % inhibition at 100nM
T25 construct: purchased DiscoverX

RET_V804L = biological target: T26, RET_V804L (Homo sapiens, UniProt P07949, V804L); experiment: Proqinase Kinase profiling; type: biochemical; settings: read-out: % inhibition at 100nM
T26 construct: purchased DiscoverX

NLK = biological target: T27, NLK (Homo sapiens, UniProt Q9UBE8); experiment: Proqinase Kinase profiling; type: biochemical; settings: read-out: % inhibition at 100nM
T27 construct: purchased DiscoverX

MAPKAPK3 = biological target: T28, MAPKAPK3 (Homo sapiens, UniProt Q16644); experiment: Proqinase Kinase profiling; type: biochemical; settings: read-out: % inhibition at 100nM
T28 construct: purchased DiscoverX

AURKB = biological target: T29, AURKB (Homo sapiens, UniProt Q96GD4); experiment: Proqinase Kinase profiling; type: biochemical; settings: read-out: % inhibition at 100nM
T29 construct: purchased DiscoverX

RET_E762Q = biological target: T30, RET_E762Q (Homo sapiens, UniProt P07949, E762Q); experiment: Proqinase Kinase profiling; type: biochemical; settings: read-out: % inhibition at 100nM
T30 construct: purchased DiscoverX

MAP3K1 = biological target: T31, MAP3K1 (Homo sapiens, UniProt Q13233); experiment: Proqinase Kinase profiling; type: biochemical; settings: read-out: % inhibition at 100nM
T31 construct: purchased DiscoverX

TEK_Y1108F = biological target: T32, TEK_Y1108F (Homo sapiens, UniProt Q02763, Y1108F); experiment: Proqinase Kinase profiling; type: biochemical; settings: read-out: % inhibition at 100nM
T32 construct: purchased DiscoverX

SIK2 = biological target: T33, SIK2 (Homo sapiens, UniProt Q9H0K1); experiment: Proqinase Kinase profiling; type: biochemical; settings: read-out: % inhibition at 100nM
T33 construct: purchased DiscoverX

RPS6KA5 = biological target: T34, RPS6KA5 (Homo sapiens, UniProt O75582); experiment: Proqinase Kinase profiling; type: biochemical; settings: read-out: % inhibition at 100nM
T34 construct: purchased DiscoverX

RET_G691S = biological target: T35, RET_G691S (Homo sapiens, UniProt P07949, G691S); experiment: Proqinase Kinase profiling; type: biochemical; settings: read-out: % inhibition at 100nM
T35 construct: purchased DiscoverX

[1] = test system: TGF-β-induced CAGA-LUC reporter activity; experiment: TGF-β CAGA-LUC reporter assay in KS483 cells; type: cell-based, mouse; settings: TGF-β 5 ng/mL 16 hours, compared with LDN-193189
Experimental: Compounds were added for 16 hours at 0.5μM before luciferase activity was measured.
For luciferase reporter assays, cells were seeded in 24-well plates and transfected with DharmaFECT Duo (Fisher Scientific, Landsmeer, The Netherlands), following the recommendations of the manufacturer. 48 hours after transfection the cells were harvested and lysed. […] Each transfection mixture was equalized with empty vector when necessary and every experiment was performed in triplicate.

JAK1 = biological target: T36, JAK1 (Homo sapiens, UniProt P23458); experiment: Proqinase Kinase profiling; type: biochemical; settings: read-out: % inhibition at 100nM
T36 construct: purchased DiscoverX

PHKG1 = biological target: T37, PHKG1 (Homo sapiens, UniProt Q16816); experiment: Proqinase Kinase profiling; type: biochemical; settings: read-out: % inhibition at 100nM
T37 construct: purchased DiscoverX

IKBKE = biological target: T38, IKBKE (Homo sapiens, UniProt Q14164); experiment: Proqinase Kinase profiling; type: biochemical; settings: read-out: % inhibition at 100nM
T38 construct: purchased DiscoverX

EPHA4 = biological target: T39, EPHA4 (Homo sapiens, UniProt P54764); experiment: Proqinase Kinase profiling; type: biochemical; settings: read-out: % inhibition at 100nM
T39 construct: purchased DiscoverX

FGFR2 = biological target: T40, FGFR2 (Homo sapiens, UniProt P21802); experiment: Proqinase Kinase profiling; type: biochemical; settings: read-out: % inhibition at 100nM
T40 construct: purchased DiscoverX

T24 sequence (P09619 33-1106): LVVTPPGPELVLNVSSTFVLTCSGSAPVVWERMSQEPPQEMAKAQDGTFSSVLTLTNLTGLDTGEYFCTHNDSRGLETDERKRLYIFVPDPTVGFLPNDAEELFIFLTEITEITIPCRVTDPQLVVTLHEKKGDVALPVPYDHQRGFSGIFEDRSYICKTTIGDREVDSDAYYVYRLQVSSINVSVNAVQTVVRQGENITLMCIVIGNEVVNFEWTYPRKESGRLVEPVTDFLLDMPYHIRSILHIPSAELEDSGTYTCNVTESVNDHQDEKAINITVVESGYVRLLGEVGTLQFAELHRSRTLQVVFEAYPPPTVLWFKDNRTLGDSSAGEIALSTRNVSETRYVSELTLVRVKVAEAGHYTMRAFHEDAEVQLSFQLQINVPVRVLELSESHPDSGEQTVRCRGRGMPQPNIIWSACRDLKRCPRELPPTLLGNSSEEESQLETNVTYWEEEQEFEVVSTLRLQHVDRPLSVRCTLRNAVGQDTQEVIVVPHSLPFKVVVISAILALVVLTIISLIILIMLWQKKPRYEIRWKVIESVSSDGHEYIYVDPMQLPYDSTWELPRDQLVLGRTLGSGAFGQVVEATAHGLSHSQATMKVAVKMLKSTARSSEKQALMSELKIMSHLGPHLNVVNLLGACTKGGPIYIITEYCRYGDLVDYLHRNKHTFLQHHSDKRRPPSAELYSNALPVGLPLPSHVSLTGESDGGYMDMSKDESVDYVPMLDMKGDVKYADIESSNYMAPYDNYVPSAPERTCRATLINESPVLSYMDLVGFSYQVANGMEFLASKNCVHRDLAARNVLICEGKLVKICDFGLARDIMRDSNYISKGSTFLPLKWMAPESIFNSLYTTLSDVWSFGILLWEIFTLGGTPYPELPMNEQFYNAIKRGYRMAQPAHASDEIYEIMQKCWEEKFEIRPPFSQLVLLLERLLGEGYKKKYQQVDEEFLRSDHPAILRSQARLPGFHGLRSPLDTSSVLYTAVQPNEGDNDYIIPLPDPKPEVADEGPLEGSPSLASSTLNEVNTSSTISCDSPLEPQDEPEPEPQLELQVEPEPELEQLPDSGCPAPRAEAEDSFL
T26 sequence (P07949 29-1114 V804L): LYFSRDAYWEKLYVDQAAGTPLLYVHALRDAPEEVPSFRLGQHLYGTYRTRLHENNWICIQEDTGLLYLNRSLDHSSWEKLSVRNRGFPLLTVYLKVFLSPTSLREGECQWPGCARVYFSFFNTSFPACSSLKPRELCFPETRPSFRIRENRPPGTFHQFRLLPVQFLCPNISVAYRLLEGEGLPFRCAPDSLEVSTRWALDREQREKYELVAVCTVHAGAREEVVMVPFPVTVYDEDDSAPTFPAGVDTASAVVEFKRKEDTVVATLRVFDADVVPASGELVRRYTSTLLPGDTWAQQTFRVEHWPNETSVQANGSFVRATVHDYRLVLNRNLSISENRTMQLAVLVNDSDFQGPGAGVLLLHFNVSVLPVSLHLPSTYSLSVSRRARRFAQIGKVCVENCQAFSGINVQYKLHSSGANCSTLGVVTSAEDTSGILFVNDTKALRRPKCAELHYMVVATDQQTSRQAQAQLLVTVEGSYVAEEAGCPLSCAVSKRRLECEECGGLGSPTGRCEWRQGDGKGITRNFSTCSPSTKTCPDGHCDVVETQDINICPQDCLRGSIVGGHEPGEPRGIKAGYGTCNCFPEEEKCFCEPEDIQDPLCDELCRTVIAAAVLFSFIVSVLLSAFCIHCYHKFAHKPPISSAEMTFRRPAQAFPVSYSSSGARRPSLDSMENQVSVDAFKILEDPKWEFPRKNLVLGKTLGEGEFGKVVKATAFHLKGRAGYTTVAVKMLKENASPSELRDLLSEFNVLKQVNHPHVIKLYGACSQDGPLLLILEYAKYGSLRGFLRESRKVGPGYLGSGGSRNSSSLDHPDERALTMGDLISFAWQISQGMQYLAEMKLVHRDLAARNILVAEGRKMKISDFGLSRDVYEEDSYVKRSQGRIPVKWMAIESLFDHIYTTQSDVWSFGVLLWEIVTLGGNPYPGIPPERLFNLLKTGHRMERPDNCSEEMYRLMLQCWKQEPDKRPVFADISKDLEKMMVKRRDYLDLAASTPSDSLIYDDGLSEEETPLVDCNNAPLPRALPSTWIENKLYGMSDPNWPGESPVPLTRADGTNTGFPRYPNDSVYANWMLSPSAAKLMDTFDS
T30 sequence (P07949 29-1114 E762Q): as the sequence (P07949 29-1114 V804L) above, with E734Q, L776V counted along it
T21 sequence (Q9NZJ5 30-1116): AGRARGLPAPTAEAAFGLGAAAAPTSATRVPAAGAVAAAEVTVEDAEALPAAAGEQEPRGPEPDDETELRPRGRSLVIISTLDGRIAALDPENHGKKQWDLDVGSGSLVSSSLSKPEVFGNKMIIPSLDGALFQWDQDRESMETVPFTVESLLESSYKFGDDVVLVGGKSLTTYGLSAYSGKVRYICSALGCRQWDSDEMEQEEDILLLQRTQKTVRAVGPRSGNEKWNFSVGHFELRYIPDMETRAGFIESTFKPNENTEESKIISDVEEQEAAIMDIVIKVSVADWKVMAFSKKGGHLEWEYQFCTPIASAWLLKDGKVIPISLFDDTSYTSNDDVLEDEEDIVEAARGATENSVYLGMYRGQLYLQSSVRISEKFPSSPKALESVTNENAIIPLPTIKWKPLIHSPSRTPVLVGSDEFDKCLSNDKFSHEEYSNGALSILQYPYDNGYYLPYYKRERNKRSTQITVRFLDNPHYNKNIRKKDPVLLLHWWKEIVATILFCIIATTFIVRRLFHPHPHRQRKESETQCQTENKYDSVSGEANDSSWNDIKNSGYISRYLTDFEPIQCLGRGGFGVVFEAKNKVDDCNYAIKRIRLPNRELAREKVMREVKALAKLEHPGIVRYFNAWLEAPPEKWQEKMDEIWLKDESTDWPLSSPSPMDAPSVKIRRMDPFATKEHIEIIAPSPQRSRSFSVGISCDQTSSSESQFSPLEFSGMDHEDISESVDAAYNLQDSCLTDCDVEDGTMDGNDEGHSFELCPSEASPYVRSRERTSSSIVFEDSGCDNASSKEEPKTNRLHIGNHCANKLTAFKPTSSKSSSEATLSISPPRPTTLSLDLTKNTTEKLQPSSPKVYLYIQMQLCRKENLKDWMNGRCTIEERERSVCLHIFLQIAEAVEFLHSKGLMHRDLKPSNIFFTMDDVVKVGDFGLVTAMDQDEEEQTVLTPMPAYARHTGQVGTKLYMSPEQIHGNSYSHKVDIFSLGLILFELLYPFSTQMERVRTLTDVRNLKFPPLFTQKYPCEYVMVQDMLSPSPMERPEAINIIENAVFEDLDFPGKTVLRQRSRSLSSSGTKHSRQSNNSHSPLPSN
T7 sequence (P10721 26-976 D816H): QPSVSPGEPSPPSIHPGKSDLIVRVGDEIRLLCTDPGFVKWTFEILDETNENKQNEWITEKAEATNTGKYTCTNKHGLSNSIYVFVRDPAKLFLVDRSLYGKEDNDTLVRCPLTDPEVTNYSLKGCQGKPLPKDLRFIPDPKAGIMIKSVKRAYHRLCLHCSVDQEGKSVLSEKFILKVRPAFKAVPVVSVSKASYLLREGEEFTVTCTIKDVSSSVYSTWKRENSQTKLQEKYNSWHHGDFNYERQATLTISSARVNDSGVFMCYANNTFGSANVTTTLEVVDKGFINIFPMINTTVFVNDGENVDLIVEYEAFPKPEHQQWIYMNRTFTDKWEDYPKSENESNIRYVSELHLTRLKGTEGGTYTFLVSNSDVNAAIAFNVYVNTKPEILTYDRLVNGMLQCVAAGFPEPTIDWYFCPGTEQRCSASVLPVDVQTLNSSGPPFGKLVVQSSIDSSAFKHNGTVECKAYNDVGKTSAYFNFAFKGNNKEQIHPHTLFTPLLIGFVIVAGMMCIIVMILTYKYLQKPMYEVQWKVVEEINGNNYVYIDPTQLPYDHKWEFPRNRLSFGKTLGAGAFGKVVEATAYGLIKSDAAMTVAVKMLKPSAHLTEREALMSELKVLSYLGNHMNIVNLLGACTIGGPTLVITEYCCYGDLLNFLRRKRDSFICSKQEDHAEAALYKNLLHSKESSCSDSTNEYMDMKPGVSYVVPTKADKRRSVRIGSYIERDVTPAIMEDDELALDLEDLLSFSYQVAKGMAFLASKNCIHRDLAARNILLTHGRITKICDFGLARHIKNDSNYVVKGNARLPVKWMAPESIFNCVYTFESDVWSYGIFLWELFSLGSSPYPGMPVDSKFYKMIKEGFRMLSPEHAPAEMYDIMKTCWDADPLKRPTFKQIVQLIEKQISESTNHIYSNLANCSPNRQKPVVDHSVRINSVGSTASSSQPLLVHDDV
T34 sequence (O75582 whole entry): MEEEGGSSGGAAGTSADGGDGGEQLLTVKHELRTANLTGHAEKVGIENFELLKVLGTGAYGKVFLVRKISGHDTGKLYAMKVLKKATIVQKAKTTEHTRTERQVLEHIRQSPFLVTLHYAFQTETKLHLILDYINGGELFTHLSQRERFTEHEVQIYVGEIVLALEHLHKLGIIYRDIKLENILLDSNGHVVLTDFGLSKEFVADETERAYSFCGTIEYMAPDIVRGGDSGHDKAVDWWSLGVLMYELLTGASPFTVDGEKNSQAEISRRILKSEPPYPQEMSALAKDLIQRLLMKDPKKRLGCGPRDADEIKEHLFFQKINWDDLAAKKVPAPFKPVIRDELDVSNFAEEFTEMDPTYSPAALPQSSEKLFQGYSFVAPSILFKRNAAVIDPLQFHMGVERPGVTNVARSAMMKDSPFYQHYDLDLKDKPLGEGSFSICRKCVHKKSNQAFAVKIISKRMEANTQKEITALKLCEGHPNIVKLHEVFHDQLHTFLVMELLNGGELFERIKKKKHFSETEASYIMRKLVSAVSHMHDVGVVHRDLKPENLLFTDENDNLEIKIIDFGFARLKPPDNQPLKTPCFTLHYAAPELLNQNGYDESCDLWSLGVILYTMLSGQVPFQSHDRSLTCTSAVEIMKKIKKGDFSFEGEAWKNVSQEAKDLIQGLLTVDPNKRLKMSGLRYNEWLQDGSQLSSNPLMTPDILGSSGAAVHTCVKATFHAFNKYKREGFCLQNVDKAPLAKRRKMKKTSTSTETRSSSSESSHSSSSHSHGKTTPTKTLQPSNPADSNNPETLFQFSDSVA
T35 sequence (P07949 29-1114 G691S): as the sequence (P07949 29-1114 V804L) above, with G663S, L776V counted along it

Clc1cc2cc(c1)-c1cnn3ccc(nc13)NCCOCCO2 [OD36]
inhibition at 0.1 µM (EPHA8): 11%
inhibition at 0.1 µM (RPS6KB1): -9%
inhibition at 0.1 µM (ROCK1): 1%
inhibition at 0.1 µM (PAK2): -5%
inhibition at 0.1 µM (PRKD2): 9%
inhibition at 0.1 µM (PTK6): 46%
inhibition at 0.1 µM (KIT_D816H): 32%
inhibition at 0.1 µM (PRKCQ): 12%
inhibition at 0.1 µM (NTRK3): 17%
inhibition at 0.1 µM (DSTYK): 3%
inhibition at 0.1 µM (PLK2): 17%
inhibition at 0.1 µM (ABL1_H396P): 21%
inhibition at 0.1 µM (CSNK1D): 10%
inhibition at 0.1 µM (CSF1R): 16%
inhibition at 0.1 µM (STK25): 1%
inhibition at 0.1 µM (EGFR_L861Q): 15%
inhibition at 0.1 µM (MAP3K7): 3%
inhibition at 0.1 µM (MAP3K2): 7%
inhibition at 0.1 µM (GCK): 35%
inhibition at 0.1 µM (PKN1): 16%
inhibition at 0.1 µM (EIF2AK3): 1%
inhibition at 0.1 µM (CDC42BPA): 15%
inhibition at 0.1 µM (DAPK3): 16%
inhibition at 0.1 µM (PDGFRB): 57%
inhibition at 0.1 µM (HIPK1): 8%
inhibition at 0.1 µM (RET_V804L): -10%
inhibition at 0.1 µM (NLK): 33%
inhibition at 0.1 µM (MAPKAPK3): -1%
inhibition at 0.1 µM (AURKB): 16%
inhibition at 0.1 µM (RET_E762Q): 33%
inhibition at 0.1 µM (MAP3K1): 8%
inhibition at 0.1 µM (TEK_Y1108F): -27%
inhibition at 0.1 µM (SIK2): 94%
inhibition at 0.1 µM (RPS6KA5): -3%
inhibition at 0.1 µM (RET_G691S): 25%
Inhibitory effect on TGF-β-induced gene transcription (CAGA-LUC) [1]: significantly less inhibitory effect
inhibition at 0.1 µM (JAK1): 18%
inhibition at 0.1 µM (PHKG1): 8%
inhibition at 0.1 µM (IKBKE): 6%
inhibition at 0.1 µM (EPHA4): -2%
inhibition at 0.1 µM (FGFR2): 8%

Cc1cc2cc(c1)-c1cnn3ccc(nc13)NCCNC(=O)CCN(C)C2 [OD52]
inhibition at 0.1 µM (EPHA8): -6%
inhibition at 0.1 µM (RPS6KB1): -2%
inhibition at 0.1 µM (ROCK1): 1%
inhibition at 0.1 µM (PAK2): -7%
inhibition at 0.1 µM (PRKD2): 4%
inhibition at 0.1 µM (PTK6): 0%
inhibition at 0.1 µM (KIT_D816H): -14%
inhibition at 0.1 µM (PRKCQ): -2%
inhibition at 0.1 µM (NTRK3): 24%
inhibition at 0.1 µM (DSTYK): -1%
inhibition at 0.1 µM (PLK2): -4%
inhibition at 0.1 µM (ABL1_H396P): -12%
inhibition at 0.1 µM (CSNK1D): 5%
inhibition at 0.1 µM (CSF1R): -1%
inhibition at 0.1 µM (STK25): 2%
inhibition at 0.1 µM (EGFR_L861Q): -4%
inhibition at 0.1 µM (MAP3K7): -6%
inhibition at 0.1 µM (MAP3K2): 14%
inhibition at 0.1 µM (GCK): 1%
inhibition at 0.1 µM (PKN1): 5%
inhibition at 0.1 µM (EIF2AK3): -14%
inhibition at 0.1 µM (CDC42BPA): -4%
inhibition at 0.1 µM (DAPK3): 11%
inhibition at 0.1 µM (PDGFRB): 3%
inhibition at 0.1 µM (HIPK1): 0%
inhibition at 0.1 µM (RET_V804L): -8%
inhibition at 0.1 µM (NLK): 1%
inhibition at 0.1 µM (MAPKAPK3): -25%
inhibition at 0.1 µM (AURKB): -4%
inhibition at 0.1 µM (RET_E762Q): 19%
inhibition at 0.1 µM (MAP3K1): -14%
inhibition at 0.1 µM (TEK_Y1108F): -21%
inhibition at 0.1 µM (SIK2): -1%
inhibition at 0.1 µM (RPS6KA5): 7%
inhibition at 0.1 µM (RET_G691S): 24%
Inhibitory effect on TGF-β-induced gene transcription (CAGA-LUC) [1]: significantly less inhibitory effect
inhibition at 0.1 µM (JAK1): -6%
inhibition at 0.1 µM (PHKG1): -4%
inhibition at 0.1 µM (IKBKE): -21%
inhibition at 0.1 µM (EPHA4): -7%
inhibition at 0.1 µM (FGFR2): -6%
